Patent publication US6653280B2, “Antifungal polypeptide AlyAFP from Alyssum and methods for controlling plant pathogenic fungi” (Monsanto Technology LLC, priority 1996, dated 2003)
Like-named read-outs stand apart in the source and are kept apart here.

Tests used:
Verticillium dahliae [1] = conditions: V. dahliae, comparison peptides disclosed in WO 93/05153, cited from earlier work
Verticillium dahliae [2] = experiment: Verticillium wilt disease test on transgenic potato plants expressing the polypeptide; format: in vivo, potato (Solanum tuberosum var. Russet Burbank); conditions: for Verticillium wilt resistance conferred to potato plants: expression levels as high as 25 μg/g fresh leaf tissue; for Disease Severity (%) (58 Days Post Inoc.): average of three replicates; for difference in disease progress between expressing lines and control lines: rated at 49, 58, and 64 days post inoculation; for Disease Severity (%) (44 Days Post Inoc.): average of 3 replicates
Experimental: Conidia and mycelia of a 2-3 week old culture of virulent Verticillium dahliae were used to inoculate a PDA (potatoes, 200 g/l; Bacto dextrose, 20 g/l; and Bacto agar, 15 g/l ) Petri plate. This culture was allowed to grow at 22° C. for 4-5 days. Conidia were then harvested by washing the culture plate with sterile distilled water and filtering the liquid through two layers of cheesecloth. The conidial spore concentration was determined using a hemacytometer, and adjusted to 1×10^6 conidia/ml with sterile distilled water.
Transgenic and non-transgenic potato plants were grown from stem cuttings under sterile conditions as described above in plastic cups containing 50 mls of PM-agar medium. When plants were about 1-2 inches tall, they were removed from the medium and their roots were dipped in the spore suspension (Joaquim et al. (1991) Phytopathology 81:552-558). The inoculated plants were then transplanted into 6-inch pots containing Metro-Mix 350. After transplanting, each plant received an additional 5mls of the spore suspension on the soil surface around the base of the stem. The pots were placed in a growth chamber under the following conditions: temperature at 20° C., light intensity at 320 μEinstein/sec/cm^2, 12 hr day/12 hr night light cycle, subirrigation with water 2 times/day, 20 minutes soaking each time. Four weeks after inoculation, the plants were scored for disease severity on a scale of 0-100% (Horsfall et al. (1945) Phytopathology 35:655). To develop a disease progress curve over time, plants were rated once a week for at least 8 weeks.
Table 3 summarizes the protein expression level in each of the lines, and the disease severity rating of each individual line in the test determined at 44 days post inoculation. The disease severity rating was the average of 3 replicates. For convenience, the same disease data are also presented as a bar graph in FIG. 11. The order of appearance of each potato line in Table 3 (from top to bottom) and in FIG. 11 (from left to right) is the same.
In this test, disease symptoms appeared in the experimental and control plants at approximately 49 days post inoculation. Disease progress was rated at 49, 58, and 64 days post inoculation. […] The disease severity rating was the average of three replicates. Table 4 summarizes the protein expression level in each of the lines, and the disease severity rating of each individual line determined at 58 days post inoculation. For convenience, the same disease data are also presented as a bar graph in FIG. 12. The order of appearance of each potato line in Table 4 (from top to bottom) and in FIG. 12 (from left to right) is the same.

Fusarium culmorum [3] = conditions: F. culmorum, comparison peptides disclosed in WO 93/05153, cited from earlier work
Verticillium dahliae [4] = experiment: Antifungal activity: inhibition of fungal hyphal growth (microscopy); format: cell-based; conditions: V. dahliae
Experimental: (§1) The antifungal activity of AlyAFP can be expressed as the concentration thereof in μg/ml required to cause 50% inhibition of fungal hyphal growth (IC50). Percent fungal hyphal growth inhibition is defined as 100×the ratio of the average hyphae length in the test sample culture divided by the average hyphae length in the control culture in which buffer is added in place of the polypeptide sample.
(§2) The antifungal activity of AlyAFP was determined by measuring the inhibition of fungal hyphal length of a number of different fungi in the presence of this polypeptide under an inverted microscope. Fungal spores (2×10^4 spores/ml) were allowed to germinate for 5 to 15 hours, depending on the fungus used in the test, in 50 μl of double strength testing medium. […] For experiments on the antagonistic effect of cations, CaCl2 and KCl were added to final concentrations of 1 mM and 50 mM, respectively. This salt-supplemented medium is refered to as “high salt medium,” and the original medium is refered to as “low salt medium.” After spore germination, 50 μl of a filter-sterilized solution of polypeptide in distilled water were added to the testing well containing the germinated spores, and the mixture was incubated for 15 to 24 hours at 24° C. […] Polypeptide concentrations were determined using the BCA protein assay kit obtained from Pierce (Rockford, Ill.).

Fusarium culmorum [5] = conditions: F. culmorum
Experimental: as §1, §2

[6] = ELISA of antifungal polypeptide expression in leaves of transgenic potato plants; set-up: species or system potato (Solanum tuberosum var. Russet Burbank); conditions: 3 transgenic potato lines
Experimental: Leaf samples (20 to 100 mg) were taken from transgenic plants grown to 1 to 2 inches in height. The leaf samples were ground in PBST buffer (15 μl/mg tissue) containing 1 mM KH2PO4, 10 mM Na2HPO4, 137 mM NaCl, 2.7 mM KCl, pH 7.4, and 0.05% Tween-20, and allowed to sit at 4° C. overnight. After centrifugation, 100 μl of the supernatant were used in an ELISA assay. Polyclonal antibodies against Rs-AFP1 polypeptide (SEQ ID NO:18) were prepared by Pocono Rabbit Farm (Pocono, Pa.). Wells of a Nunc Maxi-sorp 96 well plate (Nunc #4-39454) were coated with antibodies against Rs-AFP1 polypeptide by adding 100 μl of antibodies (1 mg IgG/ml) diluted 1:200 in coating buffer containing 1.59 g Na2CO3 and 2.93 g NaHCO3 per liter distilled water, pH 9.6, and incubating at 4° C. overnight. The coating solution was then removed from the wells, which were then washed three times with PBST. One hundred μl of leaf supernatant or appropriately diluted polypeptide standards in PBST supplemented with 0.2% (w/v) BSA, fraction V (Sigma, St. Louis) were added to the wells. The concentration of each polypeptide in extracts from transgenic plants was determined from standard curves constructed using varying amounts of the respective purified polypeptide. […] The optical density at 405 nm was determined using a Thermo-max microplate reader (Molecular Devices, Menlo Park, Calif.). […]

[7] = 58 days post inoc., average of the 5 expressing lines marked +, vector control 60.0
[8] = high salt medium (1 mM CaCl2, 50 mM KCl)

Rs-AFP2: small cysteine-rich antifungal protein isolated from radish seed (WO 93/05153), SEQ ID NO:19 (QKLCQRPSGTWSGVCGNNNACKNQCIRLEKARHGSCNYVFPAHKCICYFPC)
IC50 (Verticillium dahliae [1]; high salt): 50 µg/mL
IC50 (Verticillium dahliae [1]; low salt): 1.5 µg/mL
Average Dis. Sev. (Verticillium dahliae [2]; [7]): 64.0%
Verticillium wilt resistance conferred to potato plants (Verticillium dahliae [2]): did not provide any significant level of Verticillium wilt resistance
Disease Severity (%) (58 Days Post Inoc.) (Verticillium dahliae [2]; potato line 13500, 10.8 μg AFP/g tissue): 82.5%
Disease Severity (%) (58 Days Post Inoc.) (Verticillium dahliae [2]; potato line 13501, 25.2 μg AFP/g tissue): 76.3%
Disease Severity (%) (58 Days Post Inoc.) (Verticillium dahliae [2]; potato line 13503, 25.1 μg AFP/g tissue): 53.8%
Disease Severity (%) (58 Days Post Inoc.) (Verticillium dahliae [2]; potato line 13531, 16.2 μg AFP/g tissue): 72.5%
Disease Severity (%) (58 Days Post Inoc.) (Verticillium dahliae [2]; potato line 13532, 17.5 μg AFP/g tissue): 35.0%
difference in disease progress between expressing lines and control lines (Verticillium dahliae [2]): No differences
IC50 (Fusarium culmorum [3]; high salt): 5 µg/mL
IC50 (Fusarium culmorum [3]; low salt): 2 µg/mL

AlyAFP: antifungal polypeptide of 50 amino acids obtainable from flowers of Alyssum, SEQ ID NO:2 (RLCERPSGTWSGVCGNNNACRNQCRNLERAEHGSCNYVFPAHKCICYFPC)
IC50 (Verticillium dahliae [4]; [8]): <5 µg/mL
IC50 (Verticillium dahliae [4]; low salt medium): <1 µg/mL
IC50 (Fusarium culmorum [5]; [8]): <10 µg/mL
IC50 (Fusarium culmorum [5]; low salt medium): <2 µg/mL
Average Dis. Sev. (Verticillium dahliae [2]; 44 days post inoc., average of the 8 high and medium expressing lines marked +, vector control 39.2): 14.9%
disease severity less than that of the vector control (Verticillium dahliae [2]; average of 8 high and medium expressing lines vs average of 3 vector control lines, 44 days): 62%
disease severity less than that of the vector control (Verticillium dahliae [2]; best high expressing lines #17575 and #17587, 44 days): 82%
disease resistance as compared to the vector controls (Verticillium dahliae [2]; low expressing lines (0.9 to 1.1 μg/g fresh leaf tissue)): did not exhibit any significant level of disease resistance
Disease Severity (%) (44 Days Post Inoc.) (Verticillium dahliae [2]; potato line 17575, 14.9 μg AFP/g tissue): 7.5%
Disease Severity (%) (44 Days Post Inoc.) (Verticillium dahliae [2]; potato line 17578, 12.7 μg AFP/g tissue): 15%
Disease Severity (%) (44 Days Post Inoc.) (Verticillium dahliae [2]; potato line 17580, 0.9 μg AFP/g tissue): 33.3%
Disease Severity (%) (44 Days Post Inoc.) (Verticillium dahliae [2]; potato line 17581, 9.2 μg AFP/g tissue): 24.3%
Disease Severity (%) (44 Days Post Inoc.) (Verticillium dahliae [2]; potato line 17587, 9.6 μg AFP/g tissue): 6.3%
Disease Severity (%) (44 Days Post Inoc.) (Verticillium dahliae [2]; potato line 17589, 1.1 μg AFP/g tissue): 43.8%
Disease Severity (%) (44 Days Post Inoc.) (Verticillium dahliae [2]; potato line 17592, 2.6 μg AFP/g tissue): 11.8%
Disease Severity (%) (44 Days Post Inoc.) (Verticillium dahliae [2]; potato line 17593, 2.6 μg AFP/g tissue): 17.3%
Disease Severity (%) (44 Days Post Inoc.) (Verticillium dahliae [2]; potato line 17595, 5.2 μg AFP/g tissue): 21%
Disease Severity (%) (44 Days Post Inoc.) (Verticillium dahliae [2]; potato line 17618, 2.6 μg AFP/g tissue): 16.3%
expression level at which potato plants exhibit resistance to Verticillium wilt (Verticillium dahliae [2]; transgenic potato plants): ≥ 2.6 μg/g fresh leaf tissue
expression level, medium expressers [6]: 2.6 μg AlyAFP/g fresh leaf tissue

Rs-AFP1: small cysteine-rich antifungal protein isolated from radish seed (WO 93/05153), SEQ ID NO:18 (QKLCERPSGTWSGVCGNNNACKNQCINLEKARHGSCNYVFPAHKCICYFPC)
IC50 (Verticillium dahliae [1]; high salt): >100 µg/mL
IC50 (Verticillium dahliae [1]; low salt): 5 µg/mL
Average Dis. Sev. (Verticillium dahliae [2]; [7]): 59.8%
Verticillium wilt resistance conferred to potato plants (Verticillium dahliae [2]): did not provide any significant level of Verticillium wilt resistance
Disease Severity (%) (58 Days Post Inoc.) (Verticillium dahliae [2]; potato line 15117, 9.7 μg AFP/g tissue): 47.5%
Disease Severity (%) (58 Days Post Inoc.) (Verticillium dahliae [2]; potato line 15120, 8.0 μg AFP/g tissue): 50.0%
Disease Severity (%) (58 Days Post Inoc.) (Verticillium dahliae [2]; potato line 15124, 26 μg AFP/g tissue): 56.3%
Disease Severity (%) (58 Days Post Inoc.) (Verticillium dahliae [2]; potato line 15143, 18.3 μg AFP/g tissue): 78.8%
Disease Severity (%) (58 Days Post Inoc.) (Verticillium dahliae [2]; potato line 15154, 5.2 μg AFP/g tissue): 66.3%
difference in disease progress between expressing lines and control lines (Verticillium dahliae [2]): No differences
IC50 (Fusarium culmorum [3]; high salt): 70 µg/mL
IC50 (Fusarium culmorum [3]; low salt): 5 µg/mL
